Laboratory results taken from patent US20230085307A1, “PYRIDAZINONE COMPOUND AND HERBICIDE” (NISSAN CHEMICAL CORPORATION, priority 2019, published 2023).

Columns and labels:
late watergrass = experiment: Test Example 1: herbicidal activity, application before weed generation under submerged conditions (Table 16, symbol A); assay type: in vivo, late watergrass (Echinochloa oryzicola); conditions: amount of applied herbicide 320 g/ha
Procedure, shortened: (§1)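 Alluvial soil was flooded to 4 cm depth, weed seeds were sown mixed and 2.5-leaf rice seedlings were transplanted. On sowing day, the compound's emulsion, diluted in water to a set dose, was applied to the water surface. Plants grew at 25–30 °C and were scored 0–5 after three weeks.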

Japanese bulrush = experiment: Test Example 1: herbicidal activity, application before weed generation under submerged conditions (Table 16, symbol B); assay type: in vivo, Japanese bulrush (Schoenoplectus juncoides); conditions: amount of applied herbicide 320 g/ha
Procedure, shortened: as §1

oval-leafed pondweed = experiment: Test Example 1: herbicidal activity, application before weed generation under submerged conditions (Table 16, symbol C); assay type: in vivo, oval-leafed pondweed (Monochoria vaginalis); conditions: amount of applied herbicide 320 g/ha
Procedure, shortened: as §1

barnyard grass [1] = experiment: Test Example 3: herbicidal effect by foliage application, Wagner pot (Table 18, symbol H); assay type: in vivo, barnyard grass (Echinochloa crus-galli)
Procedure, shortened: (§2)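 Plants were sown in alluvial soil held under 0.1–0.5 cm standing water and grown 14 days in a greenhouse at 25–30 °C. An emulsifiable formulation, water-diluted to the set dose, was then sprayed onto the foliage, and effects were scored three weeks later using previously defined criteria.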

Chinese sprangletop = experiment: Test Example 3: herbicidal effect by foliage application, Wagner pot (Table 18, symbol D); assay type: in vivo, chinese sprangletop (Leptochloa chinensis)
Procedure, shortened: as §2

rice flat sedge = experiment: Test Example 3: herbicidal effect by foliage application, Wagner pot (Table 18, symbol E); assay type: in vivo, rice flat sedge (Cyperus iria)
Procedure, shortened: as §2

southern crabgrass [2] = experiment: Test Example 4: herbicidal effect by soil treatment (Table 19, symbol F); assay type: in vivo, southern crabgrass (Digitaria ciliaris); conditions: amount of applied herbicide 320 g/ha
Procedure, shortened: (§3)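 Emulsion of test compound, water-diluted to predetermined amount, sprayed on soil after sowing (seed depth ~1.5 cm, sterilized diluvial soil). Greenhouse, 25–30° C. Effect graded at three weeks post-spray.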

green foxtail [3] = experiment: Test Example 4: herbicidal effect by soil treatment (Table 19, symbol G); assay type: in vivo, green foxtail (Setaria viridis); conditions: amount of applied herbicide 320 g/ha
Procedure, shortened: as §3

barnyard grass [4] = experiment: Test Example 4: herbicidal effect by soil treatment (Table 19, symbol H); assay type: in vivo, barnyard grass (Echinochloa crus-galli); conditions: amount of applied herbicide 320 g/ha
Procedure, shortened: as §3

wild oat [5] = experiment: Test Example 4: herbicidal effect by soil treatment (Table 19, symbol I); assay type: in vivo, wild oat (Avena fatua); conditions: amount of applied herbicide 320 g/ha
Procedure, shortened: as §3

blackgrass [6] = experiment: Test Example 4: herbicidal effect by soil treatment (Table 19, symbol J); assay type: in vivo, blackgrass (Alopecurus myosuroides); conditions: amount of applied herbicide 320 g/ha
Procedure, shortened: as §3

Italian ryegrass [7] = experiment: Test Example 4: herbicidal effect by soil treatment (Table 19, symbol K); assay type: in vivo, Italian ryegrass (Lolium multiflorum); conditions: amount of applied herbicide 320 g/ha
Procedure, shortened: as §3

windgrass [8] = experiment: Test Example 4: herbicidal effect by soil treatment (Table 19, symbol L); assay type: in vivo, windgrass (Apera spica-venti); conditions: amount of applied herbicide 320 g/ha
Procedure, shortened: as §3

velvetleaf [9] = experiment: Test Example 4: herbicidal effect by soil treatment (Table 19, symbol M); assay type: in vivo, velvetleaf (Abutilon theophrasti); conditions: amount of applied herbicide 320 g/ha
Procedure, shortened: as §3

redroot pigweed [10] = experiment: Test Example 4: herbicidal effect by soil treatment (Table 19, symbol N); assay type: in vivo, redroot pigweed (Amaranthus retroflexus); conditions: amount of applied herbicide 320 g/ha
Procedure, shortened: as §3

lambsquarters [11] = experiment: Test Example 4: herbicidal effect by soil treatment (Table 19, symbol O); assay type: in vivo, lambsquarters (Chenopodium album); conditions: amount of applied herbicide 320 g/ha
Procedure, shortened: as §3

chickweed [12] = experiment: Test Example 4: herbicidal effect by soil treatment (Table 19, symbol P); assay type: in vivo, common chickweed (Stellaria media); conditions: amount of applied herbicide 320 g/ha
Procedure, shortened: as §3

persian speedwell [13] = experiment: Test Example 4: herbicidal effect by soil treatment (Table 19, symbol R); assay type: in vivo, Persian speedwell (Veronica persica); conditions: amount of applied herbicide 320 g/ha
Procedure, shortened: as §3

southern crabgrass [14] = experiment: Test Example 5: herbicidal effect by foliage application, plastic box (Table 20, symbol F); assay type: in vivo, southern crabgrass (Digitaria ciliaris); conditions: amount of applied herbicide 320 g/ha; foliage application after 14-day growth; evaluated three weeks after application
Procedure, shortened: (§4)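 Post-emergence foliar test in sterilized diluvial soil. Compound applied as water-diluted emulsion at a predetermined rate to 14-day-old plants; evaluation at three weeks.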

green foxtail [15] = experiment: Test Example 5: herbicidal effect by foliage application, plastic box (Table 20, symbol G); assay type: in vivo, green foxtail (Setaria viridis); conditions: amount of applied herbicide 320 g/ha; foliage application after 14-day growth; evaluated three weeks after application
Procedure, shortened: as §4

barnyard grass [16] = experiment: Test Example 5: herbicidal effect by foliage application, plastic box (Table 20, symbol H); assay type: in vivo, barnyard grass (Echinochloa crus-galli); conditions: amount of applied herbicide 320 g/ha; foliage application after 14-day growth; evaluated three weeks after application
Procedure, shortened: as §4

wild oat [17] = experiment: Test Example 5: herbicidal effect by foliage application, plastic box (Table 20, symbol I); assay type: in vivo, wild oat (Avena fatua); conditions: amount of applied herbicide 320 g/ha; foliage application after 14-day growth; evaluated three weeks after application
Procedure, shortened: as §4

blackgrass [18] = experiment: Test Example 5: herbicidal effect by foliage application, plastic box (Table 20, symbol J); assay type: in vivo, blackgrass (Alopecurus myosuroides); conditions: amount of applied herbicide 320 g/ha; foliage application after 14-day growth; evaluated three weeks after application
Procedure, shortened: as §4

Italian ryegrass [19] = experiment: Test Example 5: herbicidal effect by foliage application, plastic box (Table 20, symbol K); assay type: in vivo, Italian ryegrass (Lolium multiflorum); conditions: amount of applied herbicide 320 g/ha; foliage application after 14-day growth; evaluated three weeks after application
Procedure, shortened: as §4

windgrass [20] = experiment: Test Example 5: herbicidal effect by foliage application, plastic box (Table 20, symbol L); assay type: in vivo, windgrass (Apera spica-venti); conditions: amount of applied herbicide 320 g/ha; foliage application after 14-day growth; evaluated three weeks after application
Procedure, shortened: as §4

velvetleaf [21] = experiment: Test Example 5: herbicidal effect by foliage application, plastic box (Table 20, symbol M); assay type: in vivo, velvetleaf (Abutilon theophrasti); conditions: amount of applied herbicide 320 g/ha; foliage application after 14-day growth; evaluated three weeks after application
Procedure, shortened: as §4

redroot pigweed [22] = experiment: Test Example 5: herbicidal effect by foliage application, plastic box (Table 20, symbol N); assay type: in vivo, redroot pigweed (Amaranthus retroflexus); conditions: amount of applied herbicide 320 g/ha; foliage application after 14-day growth; evaluated three weeks after application
Procedure, shortened: as §4

lambsquarters [23] = experiment: Test Example 5: herbicidal effect by foliage application, plastic box (Table 20, symbol O); assay type: in vivo, lambsquarters (Chenopodium album); conditions: amount of applied herbicide 320 g/ha; foliage application after 14-day growth; evaluated three weeks after application
Procedure, shortened: as §4

chickweed [24] = experiment: Test Example 5: herbicidal effect by foliage application, plastic box (Table 20, symbol P); assay type: in vivo, common chickweed (Stellaria media); conditions: amount of applied herbicide 320 g/ha; foliage application after 14-day growth; evaluated three weeks after application
Procedure, shortened: as §4

persian speedwell [25] = experiment: Test Example 5: herbicidal effect by foliage application, plastic box (Table 20, symbol R); assay type: in vivo, Persian speedwell (Veronica persica); conditions: amount of applied herbicide 320 g/ha; foliage application after 14-day growth; evaluated three weeks after application
Procedure, shortened: as §4

Row | Compound | Herbicidal effect, A: late watergrass (late watergrass) | Herbicidal effect, B: Japanese bulrush (Japanese bulrush) | Herbicidal effect, C: oval-leafed pondweed (oval-leafed pondweed) | F: southern crabgrass, herbicidal effect grade (southern crabgrass [2]) | G: green foxtail, herbicidal effect grade (green foxtail [3]) | H: barnyard grass, herbicidal effect grade (barnyard grass [4]) | I: wild oat, herbicidal effect grade (wild oat [5]) | J: blackgrass, herbicidal effect grade (blackgrass [6]) | K: Italian ryegrass, herbicidal effect grade (Italian ryegrass [7]) | L: windgrass, herbicidal effect grade (windgrass [8]) | M: velvetleaf, herbicidal effect grade (velvetleaf [9]) | N: redroot pigweed, herbicidal effect grade (redroot pigweed [10]) | O: lambsquarters, herbicidal effect grade (lambsquarters [11]) | P: chickweed, herbicidal effect grade (chickweed [12]) | R: persian speedwell, herbicidal effect grade (persian speedwell [13]) | Herbicidal effect by foliage application, F: southern crabgrass (southern crabgrass [14]) | Herbicidal effect by foliage application, G: green foxtail (green foxtail [15]) | Herbicidal effect by foliage application, H: barnyard grass (barnyard grass [16]) | Herbicidal effect by foliage application, I: wild oat (wild oat [17]) | Herbicidal effect by foliage application, J: blackgrass (blackgrass [18]) | other results
1 | Cc1nn(C)c(=O)c(-c2c(-c3ccc(OC(C)C)cc3)sc3cc(F)c(F)cc23)c1O [5-019] | 3 (Herbicidal rate of 40% or more and less than 70%) | 0 (Herbicidal rate of 5% or less (almost no effect)) | 0 (Herbicidal rate of 5% or less (almost no effect)) | 0 (Herbicidal rate of 5% or less (almost no effect)) | 3 (Herbicidal rate of 40% or more and less than 70%) | 0 (Herbicidal rate of 5% or less (almost no effect)) | 0 (Herbicidal rate of 5% or less (almost no effect)) | 0 (Herbicidal rate of 5% or less (almost no effect)) | 0 (Herbicidal rate of 5% or less (almost no effect)) | 0 (Herbicidal rate of 5% or less (almost no effect)) | 3 (Herbicidal rate of 40% or more and less than 70%) | 4 (Herbicidal rate of 70% or more and less than 90%) | 2 (Herbicidal rate of 20% or more and less than 40%) | 1 (Herbicidal rate of 5% or more and less than 20%) | 4 (Herbicidal rate of 70% or more and less than 90%) | 4 (Herbicidal rate of 70% or more and less than 90%) | 4 (Herbicidal rate of 70% or more and less than 90%) | 4 (Herbicidal rate of 70% or more and less than 90%) | 0 (Herbicidal rate of 5% or less (almost no effect)) | 0 (Herbicidal rate of 5% or less (almost no effect)) | herbicidal effect on barnyard grass (H) (barnyard grass [1]; 320 g/ha): 4 (Herbicidal rate of 70% or more and less than 90%); herbicidal effect on Chinese sprangletop (D) (Chinese sprangletop; 320 g/ha): 0 (Herbicidal rate of 5% or less (almost no effect)); herbicidal effect on rice flat sedge (E) (rice flat sedge; 320 g/ha): 1 (Herbicidal rate of 5% or more and less than 20%); Herbicidal effect by foliage application, K: Italian ryegrass (Italian ryegrass [19]): 3 (Herbicidal rate of 40% or more and less than 70%); Herbicidal effect by foliage application, L: windgrass (windgrass [20]): 0 (Herbicidal rate of 5% or less (almost no effect)); Herbicidal effect by foliage application, M: velvetleaf (velvetleaf [21]): 4 (Herbicidal rate of 70% or more and less than 90%); Herbicidal effect by foliage application, N: redroot pigweed (redroot pigweed [22]): 5 (Herbicidal rate of 90% or more (almost completely withered)); Herbicidal effect by foliage application, O: lambsquarters (lambsquarters [23]): 3 (Herbicidal rate of 40% or more and less than 70%); Herbicidal effect by foliage application, P: chickweed (chickweed [24]): 5 (Herbicidal rate of 90% or more (almost completely withered)); Herbicidal effect by foliage application, R: persian speedwell (persian speedwell [25]): 5 (Herbicidal rate of 90% or more (almost completely withered))
2 | CCCC(=O)Oc1c(C)nn(C)c(=O)c1-c1c(-c2ccc(C(=O)OC)cc2)sc2cc(F)c(F)cc12 [5-028] | 0 (Herbicidal rate of 5% or less (almost no effect)) | 2 (Herbicidal rate of 20% or more and less than 40%) | 2 (Herbicidal rate of 20% or more and less than 40%) | 0 (Herbicidal rate of 5% or less (almost no effect)) | 0 (Herbicidal rate of 5% or less (almost no effect)) | 0 (Herbicidal rate of 5% or less (almost no effect)) | 0 (Herbicidal rate of 5% or less (almost no effect)) | 0 (Herbicidal rate of 5% or less (almost no effect)) | 0 (Herbicidal rate of 5% or less (almost no effect)) | 0 (Herbicidal rate of 5% or less (almost no effect)) | 0 (Herbicidal rate of 5% or less (almost no effect)) | 3 (Herbicidal rate of 40% or more and less than 70%) | 2 (Herbicidal rate of 20% or more and less than 40%) | 1 (Herbicidal rate of 5% or more and less than 20%) | 1 (Herbicidal rate of 5% or more and less than 20%) | 0 (Herbicidal rate of 5% or less (almost no effect)) | 0 (Herbicidal rate of 5% or less (almost no effect)) | 0 (Herbicidal rate of 5% or less (almost no effect)) | 0 (Herbicidal rate of 5% or less (almost no effect)) | 0 (Herbicidal rate of 5% or less (almost no effect)) | herbicidal effect on barnyard grass (H) (barnyard grass [1]; 344 g/ha): 5 (Herbicidal rate of 90% or more (almost completely withered)); herbicidal effect on Chinese sprangletop (D) (Chinese sprangletop; 344 g/ha): 0 (Herbicidal rate of 5% or less (almost no effect)); herbicidal effect on rice flat sedge (E) (rice flat sedge; 344 g/ha): 0 (Herbicidal rate of 5% or less (almost no effect)); Herbicidal effect by foliage application, K: Italian ryegrass (Italian ryegrass [19]): 0 (Herbicidal rate of 5% or less (almost no effect)); Herbicidal effect by foliage application, L: windgrass (windgrass [20]): 0 (Herbicidal rate of 5% or less (almost no effect)); Herbicidal effect by foliage application, M: velvetleaf (velvetleaf [21]): 3 (Herbicidal rate of 40% or more and less than 70%); Herbicidal effect by foliage application, N: redroot pigweed (redroot pigweed [22]): 3 (Herbicidal rate of 40% or more and less than 70%); Herbicidal effect by foliage application, O: lambsquarters (lambsquarters [23]): 3 (Herbicidal rate of 40% or more and less than 70%); Herbicidal effect by foliage application, P: chickweed (chickweed [24]): 5 (Herbicidal rate of 90% or more (almost completely withered)); Herbicidal effect by foliage application, R: persian speedwell (persian speedwell [25]): 4 (Herbicidal rate of 70% or more and less than 90%)
